Results from patent US7977322B2 (Vertex Pharmaceuticals Incorporated, priority 2004, dated 2011).

Target: T1, ΔF508-CFTR (Homo sapiens, UniProt P13569, DEL508-508)
T1 construct: expressed in transfected cells
Assay: Membrane potential optical (FRET/VIPR) assay, identification of correction compounds
Type: cell-based
Conditions: Table 3, assay not given; for Emax: read-out: % Activity / % Efficacy (relative efficacy)
Outline: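 NIH3T3 mouse fibroblasts stably expressing ΔF508-CFTR were exposed to compound for 16 h at 37° C in serum-free medium, then loaded with DiSBAC2(3)/CC2-DMPE. After addition of 10 μM forskolin plus 20 μM genistein in Cl⁻-free gluconate bath (pH 7.4), depolarization from Cl⁻ efflux was read by FRET (VIPR II).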

T1 sequence (P13569 with tags, fused parts or gaps DEL508-508): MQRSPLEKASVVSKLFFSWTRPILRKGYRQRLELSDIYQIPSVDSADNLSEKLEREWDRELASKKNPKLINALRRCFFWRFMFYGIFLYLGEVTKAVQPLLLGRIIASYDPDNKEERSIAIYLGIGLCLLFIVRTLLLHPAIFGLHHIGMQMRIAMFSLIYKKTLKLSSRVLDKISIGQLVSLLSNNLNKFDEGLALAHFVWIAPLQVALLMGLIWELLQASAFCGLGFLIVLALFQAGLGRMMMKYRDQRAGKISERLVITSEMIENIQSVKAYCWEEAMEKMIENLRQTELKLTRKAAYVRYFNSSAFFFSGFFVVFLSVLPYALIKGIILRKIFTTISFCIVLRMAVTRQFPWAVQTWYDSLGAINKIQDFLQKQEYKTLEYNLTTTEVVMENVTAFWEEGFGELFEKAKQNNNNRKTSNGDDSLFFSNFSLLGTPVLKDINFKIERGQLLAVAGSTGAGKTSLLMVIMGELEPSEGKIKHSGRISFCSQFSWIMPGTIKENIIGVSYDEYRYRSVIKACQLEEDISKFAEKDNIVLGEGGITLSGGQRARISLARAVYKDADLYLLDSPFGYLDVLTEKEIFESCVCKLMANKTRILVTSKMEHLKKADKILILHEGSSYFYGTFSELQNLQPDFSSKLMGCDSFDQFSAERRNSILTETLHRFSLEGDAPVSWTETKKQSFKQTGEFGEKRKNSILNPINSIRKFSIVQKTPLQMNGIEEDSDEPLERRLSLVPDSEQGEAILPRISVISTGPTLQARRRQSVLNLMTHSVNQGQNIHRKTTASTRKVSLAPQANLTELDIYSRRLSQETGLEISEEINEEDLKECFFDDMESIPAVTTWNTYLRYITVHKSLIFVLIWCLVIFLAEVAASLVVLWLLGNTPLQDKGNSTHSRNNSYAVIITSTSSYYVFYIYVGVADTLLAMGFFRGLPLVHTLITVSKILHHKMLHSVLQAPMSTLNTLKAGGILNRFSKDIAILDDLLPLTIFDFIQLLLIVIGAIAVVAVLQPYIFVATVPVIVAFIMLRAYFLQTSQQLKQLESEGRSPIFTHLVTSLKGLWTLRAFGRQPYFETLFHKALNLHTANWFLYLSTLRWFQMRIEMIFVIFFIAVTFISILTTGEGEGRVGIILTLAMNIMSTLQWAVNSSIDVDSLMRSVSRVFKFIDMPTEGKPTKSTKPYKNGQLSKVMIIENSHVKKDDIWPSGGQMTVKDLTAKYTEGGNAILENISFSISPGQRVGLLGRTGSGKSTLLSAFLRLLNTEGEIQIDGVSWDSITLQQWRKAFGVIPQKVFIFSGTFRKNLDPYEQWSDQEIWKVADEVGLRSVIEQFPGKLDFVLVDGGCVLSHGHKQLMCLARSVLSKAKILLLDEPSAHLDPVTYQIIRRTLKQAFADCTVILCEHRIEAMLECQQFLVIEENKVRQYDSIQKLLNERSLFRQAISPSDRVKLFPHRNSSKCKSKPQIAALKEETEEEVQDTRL

Row | SMILES | EC50 [µM] | Emax [%] | % Activity / % Efficacy (relative efficacy)
1 | O=C(Nc1ncc(CN2CC[C@H](O)C2)s1)C1(c2ccc3c(c2)OCO3)CC1 [Example 320] | 10 to 25 | > 100 | 
2 | COc1ccccc1-c1csc(NC(=O)C2(c3ccc4c(c3)OCO4)CC2)n1 [Example 112] | 10 to 25 |  | + (“+” means<25%)
3 | NC(=O)C1(C(=O)Nc2ncc(Cc3ccccc3Cl)s2)CC1 [Example 91] | 10 to 25 |  | ++ (“++” means between 25% to 100%)
4 | O=C(Nc1ncc(C(c2ccccc2F)N2CC[C@@H](O)C2)s1)C1(c2ccc3c(c2)OCO3)CC1 (stereo partly shown) [Example 472] | < 10 | > 100 | 
5 | CCOC(=O)c1nc(NC(=O)C2(c3ccc4c(c3)OCO4)CC2)sc1Cc1ccccc1OC [Example 202] | < 10 |  | +++ (“+++” means>100%)
6 | CC(CO)(CO)NC(c1cnc(NC(=O)C2(c3ccc4c(c3)OCO4)CC2)s1)c1ccccc1Cl (stereo not shown) [Example 431] | < 10 | > 100 | 
7 | CC(C)[C@@H](CO)NC(c1cnc(NC(=O)C2(c3ccc4c(c3)OCO4)CC2)s1)c1ccccc1Cl (stereo partly shown) [Example 246] | < 10 | > 100 | 
8 | COc1ccc(C2(C(=O)Nc3ncc(Cc4cc(F)ccc4Cl)s3)CC2)cc1 [Example 90] | < 10 |  | ++ (“++” means between 25% to 100%)
9 | O=C(Nc1ncc([C@@H](O)c2ccccc2Cl)s1)C1(c2ccc3c(c2)OCO3)CC1 [Example 322] | < 10 | > 100 | 
10 | O=C(Nc1ncc(C(OCCCCO)c2ccccc2Cl)s1)C1(c2ccc3c(c2)OCO3)CC1 (stereo not shown) [Example 275] | < 10 |  | + (“+” means<25%)
11 | CCOCCCNC(c1cnc(NC(=O)C2(c3ccc4c(c3)OCO4)CC2)s1)c1ccccc1Cl (stereo not shown) [Example 425] | < 10 | 25 to 100 | 
12 | C/C=C/c1cnc(NC(=O)C2(c3ccc4c(c3)OCO4)CC2)s1 [Example 386] | 10 to 25 | > 100 | 
13 | CCOC(=O)c1nc(NC(=O)C2(c3ccc(OC)cc3)CC2)sc1Cc1ccccc1OC [Example 195] | < 10 |  | +++ (“+++” means>100%)
14 | COc1cccc(C2(C(=O)Nc3ncc(Cc4ccccc4C#N)s3)CC2)c1 [Example 69] | < 10 |  | +++ (“+++” means>100%)

Continued, values first:

Row | EC50 [µM] | Emax [%] | % Activity / % Efficacy (relative efficacy) | SMILES
15 | < 10 |  | +++ (“+++” means>100%) | COc1ccc(C2(C(=O)Nc3ncc(Cc4ccccc4Cl)n3C)CC2)cc1 [Example 63]
16 | < 10 | > 100 |  | O=C(Nc1ncc(C(NCCC2=CCCCC2)c2ccccc2Cl)s1)C1(c2ccc3c(c2)OCO3)CC1 (stereo not shown) [Example 427]
17 | < 10 | > 100 |  | CC(C)[C@H](CO)NC(c1cnc(NC(=O)C2(c3ccc4c(c3)OCO4)CC2)s1)c1ccccc1F (stereo partly shown) [Example 483]
18 | < 10 |  | +++ (“+++” means>100%) | O=C(O)c1ccccc1Sc1cnc(NC(=O)C2(c3ccc4c(c3)OCO4)CC2)s1 [Example 101]
19 | < 10 |  | ++ (“++” means between 25% to 100%) | CCN(C)CCOC(c1cnc(NC(=O)C2(c3ccc4c(c3)OCO4)CC2)s1)c1ccccc1Cl (stereo not shown) [Example 276]
20 | < 10 |  | ++ (“++” means between 25% to 100%) | COc1ccccc1Cc1cnc(NC(=O)C2(c3ccc4c(c3)OCO4)CC2)o1 [Example 169]
21 | < 10 | > 100 |  | CC(C)C[C@H](CO)NC(c1cnc(NC(=O)C2(c3ccc4c(c3)OCO4)CC2)s1)c1cc(F)ccc1F (stereo partly shown) [Example 480]
22 | < 10 |  | +++ (“+++” means>100%) | COc1cccc(Cc2cnc(NC(=O)C3(c4ccc5c(c4)OCO5)CC3)s2)c1 [Example 181]
23 | < 10 | > 100 |  | Cc1ccccc1C(N[C@@H](CO)CC(C)C)c1cnc(NC(=O)C2(c3ccc4c(c3)OCO4)CC2)s1 (stereo partly shown) [Example 477]
